For orientation: pKa means the negative logarithm of the acid dissociation constant. A higher pKa goes with a group that holds its proton tightly.

Molecules are shown by their SMILES. The source made the active and inactive calls. The rule behind the calls is not given here.

This passage reports Activity and pKa results from ChEMBL document CHEMBL4725319, “Discovery of attenuation effect of orexin 1 receptor to aversion of nalfurafine: Synthesis and evaluation of D-nor-nalfurafine derivatives and analyses of the three active conformations of nalfurafine” (Bioorg Med Chem Lett, 2020).

Data set [1] has as its system Mus musculus. Kind of data set: Analgesic activity in OX1R knock out mouse assessed as increase in wheel running activity at 4 to 10 ug/kg. In kind it is functional, organism-based. The following applies: dose microg/kg 4-10.
A short description of data set [2]: Toxicity in dual OX1/2R knock out mouse assessed as increase in conditioned place aversion at 10 to 40 microg/kg, sc. The following applies: in vivo, dose 10-40 µg/kg.
Data set [3] in a line: Toxicity in mouse assessed as conditioned place aversion at 10 to 40 microg/kg, sc. The note with it: in vivo, dose 10-40 µg/kg.
The test system of data set [4] is Mus musculus. Kind of data set: Analgesic activity in OX1R knock out mouse assessed as increase in wheel running activity at 40 ug/kg. The format is functional, organism-based. The following applies: dose 40.0 µg/kg.
A short description of data set [5]: Dissociation constant, pKa of compound. In kind it is physicochemical.

For `CN(C(=O)/C=C/c1ccoc1)[C@@H]1CC[C@@]2(O)[C@H]3Cc4ccc(O)c5c4[C@@]2(CCN3CC2CC2)[C@H]1O5` [NALFURAFINE], the outcome in the data set on Mus musculus [1] was inactive. Besides, the Activity entry in data set [2] is “Toxic”; in data set [3], “Non-Toxic”. Also, the result in the data set on Mus musculus [4] was Active. The compound further gave a pKa in data set [5] of 9.4.
